# Test results: publication PMC8286840, “Identifying SARS-CoV-2 antiviral compounds by screening for small molecule inhibitors of Nsp3 papain-like protease” (Biochemical Journal, 2021)
# Where two headings read alike, the source gives them in different places.
# Experiments:
# [1] = target: T1, SARS-CoV-2 PLpro (nsp3 1564–1878) (Severe acute respiratory syndrome coronavirus 2, UniProt P0DTD1); test: biochemical; set-up: FRET-quenched peptide (Pro3) cleavage by PLpro, 10 min pre-incubation, slope over 20 min, normalised to no-compound control; settings: low concentration screen, read-out: % of control remaining
# [2] = target: T1, SARS-CoV-2 PLpro (nsp3 1564–1878); test: biochemical; set-up: FRET-quenched peptide (Pro3) cleavage by PLpro, 10 min pre-incubation, slope over 20 min, normalised to no-compound control; settings: high concentration screen, read-out: % of control remaining
smiles,measurement,setting,value
CC(C)(C)S(=O)(=O)c1ccc2nccc(Nc3n[nH]c4ccc(F)cc34)c2c1 [GSK583],remaining activity at 1.25 µM,[1]; Well no.=6206,101%
same,remaining activity at 3.75 µM,[2]; Well no.=6206,94.3%
COc1cccc(-n2c(=O)[nH]c3cc(Cl)n(-c4ccc(-c5cccc(OC)c5O)cc4)c3c2=O)c1 [GSK621],remaining activity at 1.25 µM,[1]; Well no.=8626,101%
same,remaining activity at 3.75 µM,[2]; Well no.=8626,99.7%
COC(=O)c1sccc1S(=O)(=O)Nc1ccc(Nc2ccccc2)cc1OC [GSK0660],remaining activity at 1.25 µM,[1]; Well no.=5869,111%
same,remaining activity at 3.75 µM,[2]; Well no.=5869,109%
CCS(=O)(=O)c1ccc(CC(=O)Nc2cc(Cl)c(-c3ccccc3OC(F)(F)F)c(Cl)c2)cc1 [GSK805],remaining activity at 1.25 µM,[1]; Well no.=8657,103%
same,remaining activity at 3.75 µM,[2]; Well no.=8657,94.7%
O=C(NCCS(=O)(=O)c1ccc(C(F)(F)F)cn1)c1ccc(Cl)cc1 [GSK3787],remaining activity at 1.25 µM,[1]; Well no.=5216,91.7%
same,remaining activity at 3.75 µM,[2]; Well no.=5216,95.3%
CC(C)(C)OC(=O)CN(Cc1ccc(Cl)cc1)Cc1ccc([N+](=O)[O-])s1 [GSK4112],remaining activity at 1.25 µM,[1]; Well no.=5910,97.7%
same,remaining activity at 3.75 µM,[2]; Well no.=5910,96%
COc1ccc(S(=O)(=O)Nc2c(C)cc(C)cc2C)cc1 [GSK137647A],remaining activity at 1.25 µM,[1]; Well no.=7757,103%
same,remaining activity at 3.75 µM,[2]; Well no.=7757,103%
COc1cccc(Nc2c(C(N)=O)cnc3c(C)cc(S(=O)(=O)c4cccc(C(=O)N(C)C)c4)cc23)c1 [GSK256066],remaining activity at 1.25 µM,[1]; Well no.=5300,95.5%
same,remaining activity at 3.75 µM,[2]; Well no.=5300,98.4%
C[C@@H](Oc1cc(-n2cnc3ccc(CN4CCN(C)CC4)cc32)sc1C(N)=O)c1ccccc1C(F)(F)F [GSK461364],remaining activity at 1.25 µM,[1]; Well no.=5146,102%
same,remaining activity at 3.75 µM,[2]; Well no.=5146,103%
O=C(/C=C/c1ccc(Cl)cc1)N1CCC2(CC1)CN(Cc1ccc(Cl)c(Cl)c1)C(=O)O2 [GSK682753A],remaining activity at 1.25 µM,[1]; Well no.=7054,107%
same,remaining activity at 3.75 µM,[2]; Well no.=7054,101%
CCn1c(-c2nonc2N)nc2c(C#CC(C)(C)O)ncc(OC[C@H]3CCCNC3)c21 [GSK690693],remaining activity at 1.25 µM,[1]; Well no.=3041,97.7%
same,remaining activity at 3.75 µM,[2]; Well no.=3041,94.4%
O=C1NC(=O)/C(=C/c2ccc3nccc(-c4ccncc4)c3c2)S1 [GSK1059615],remaining activity at 1.25 µM,[1]; Well no.=5191,104%
same,remaining activity at 3.75 µM,[2]; Well no.=5191,99.2%
CCn1cc(-c2ccnc3[nH]c(-c4cccc(CN(C)C)c4)cc23)c(-c2ccc(NC(=O)N(C)C)cc2)n1 [GSK1070916],remaining activity at 1.25 µM,[1]; Well no.=5031,101%
same,remaining activity at 3.75 µM,[2]; Well no.=5031,99.8%
CC(C)c1noc(N2CCC(COc3ccc(-c4ccc(S(C)(=O)=O)cc4)nc3)CC2)n1 [GSK1292263],remaining activity at 1.25 µM,[1]; Well no.=5106,93.1%
same,remaining activity at 1.25 µM,[1]; Well no.=8539,105%
same,remaining activity at 3.75 µM,[2]; Well no.=5106,97.1%
same,remaining activity at 3.75 µM,[2]; Well no.=8539,104%
CNC(=O)c1c(F)cccc1Nc1nc(Nc2cc3c(ccn3C(=O)CN(C)C)cc2OC)nc2[nH]ccc12 [GSK1838705A],remaining activity at 1.25 µM,[1]; Well no.=5310,98%
same,remaining activity at 3.75 µM,[2]; Well no.=5310,92%
CCc1cc(Nc2nccc(-c3c(-c4ccc(OC)c(C(=O)Nc5c(F)cccc5F)c4)nc4ccccn34)n2)c(OC)cc1N1CCC(N2CCN(S(C)(=O)=O)CC2)CC1 [GSK1904529A],remaining activity at 1.25 µM,[1]; Well no.=5013,89.7%
same,remaining activity at 3.75 µM,[2]; Well no.=5013,89.5%
COc1ncc(-c2ccc3nccc(-c4ccnnc4)c3c2)cc1NS(=O)(=O)c1ccc(F)cc1F [GSK2126458],remaining activity at 1.25 µM,[1]; Well no.=5308,95.7%
same,remaining activity at 3.75 µM,[2]; Well no.=5308,94.1%
CNc1nc(-c2ccc3c(N)n[nH]c3c2)cc(N2C[C@@H](C(=O)NC3CCCCC3)CC[C@H]2C)n1 [GSK2334470],remaining activity at 1.25 µM,[1]; Well no.=5464,94.9%
same,remaining activity at 3.75 µM,[2]; Well no.=5464,101%
Cc1c(Cn2c(C)nc3c(C(=O)O)cc(N4CCOCC4)cc32)cccc1C(F)(F)F [GSK2636771],remaining activity at 1.25 µM,[1]; Well no.=5178,93.1%
same,remaining activity at 3.75 µM,[2]; Well no.=5178,96.9%
CCc1ccc(N(CC(C)C)S(=O)(=O)c2ccc(OCC3CCOCC3)c(CO)c2)cc1 [GSK2981278],remaining activity at 1.25 µM,[1]; Well no.=8561,105%
same,remaining activity at 3.75 µM,[2]; Well no.=8561,101%
CN1C(=O)[C@@H](NC(=O)c2n[nH]c(Cc3ccccc3)n2)COc2ccccc21 [GSK2982772],remaining activity at 1.25 µM,[1]; Well no.=7074,96.7%
same,remaining activity at 3.75 µM,[2]; Well no.=7074,95.1%
"O=C(O)c1ccc(-c2c[nH]c3ncc(-c4ccccc4)cc23)cc1C1CCCC1 [GSK 650394 - 2-Cyclopentyl-4-(5-phenyl-1H-pyrrolo[2,3-b]pyridin-3-yl-benzoic acid]",remaining activity at 1.25 µM,[1]; Well no.=2676,96.9%
same,remaining activity at 3.75 µM,[2]; Well no.=2676,99.7%
CN1C(=O)[C@@H](NC(=O)c2cc(Cc3ccccc3)on2)COc2ccccc21 [GSK'481],remaining activity at 1.25 µM,[1]; Well no.=6534,104%
same,remaining activity at 3.75 µM,[2]; Well no.=6534,98.7%
"Cn1c(O)c(-c2[nH]c3ccccc3c2N=O)c2ccc(Br)cc21 [GSK-3 Inhibitor IX, Control, MeBIO]",remaining activity at 1.25 µM,[1]; Well no.=2427,106%
same,remaining activity at 3.75 µM,[2]; Well no.=2427,108%
O=Nc1c(-c2c(O)[nH]c3cc(Br)ccc23)[nH]c2ccccc12 [GSK-3 Inhibitor IX],remaining activity at 1.25 µM,[1]; Well no.=2466,95.8%
same,remaining activity at 3.75 µM,[2]; Well no.=2466,98.6%
Cc1cc(Nc2nc(-c3ccccc3)nc3ccccc23)n[nH]1 [GSK-3 Inhibitor XIII],remaining activity at 1.25 µM,[1]; Well no.=2502,94.8%
same,remaining activity at 3.75 µM,[2]; Well no.=2502,96.8%
CC(=O)O/N=C1/C(c2c(O)[nH]c3cc(Br)ccc23)=Nc2ccccc21 [GSK-3 Inhibitor X],remaining activity at 1.25 µM,[1]; Well no.=2468,101%
same,remaining activity at 3.75 µM,[2]; Well no.=2468,105%
Cn1sc(=O)n(Cc2ccccc2)c1=O [GSK-3b Inhibitor I],remaining activity at 1.25 µM,[1]; Well no.=2460,106%
same,remaining activity at 3.75 µM,[2]; Well no.=2460,108%
O=C1NC(=O)C(c2cn(CCCO)c3ncccc23)=C1c1cnccn1 [GSK-3b Inhibitor XI],remaining activity at 1.25 µM,[1]; Well no.=2470,101%
same,remaining activity at 3.75 µM,[2]; Well no.=2470,102%
CC(C)S(=O)(=O)c1ccc2nccc(Nc3ccc4scnc4c3)c2c1 [GSK-872],remaining activity at 1.25 µM,[1]; Well no.=6584,96.3%
same,remaining activity at 3.75 µM,[2]; Well no.=6584,108%
CCOC(=O)CCNc1cc(N2CCc3ccccc3CC2)nc(-c2ccccn2)n1 [GSK-J4],remaining activity at 1.25 µM,[1]; Well no.=5779,106%
same,remaining activity at 3.75 µM,[2]; Well no.=5779,106%
c1ccc(-c2n[nH]c3c2oc2ccccc23)cc1 [GTP-14564],remaining activity at 1.25 µM,[1]; Well no.=2417,104%
same,remaining activity at 3.75 µM,[2]; Well no.=2417,105%
Cc1cc(SCc2sc(-c3ccc(C(F)(F)F)c(F)c3)nc2C)ccc1OCC(=O)O [GW0742],remaining activity at 1.25 µM,[1]; Well no.=5214,100%
same,remaining activity at 3.75 µM,[2]; Well no.=5214,98.5%
CN(CCOc1ccc(C[C@H](Nc2ccccc2C(=O)c2ccccc2)C(=O)O)cc1)c1ccccn1 [GW1929],remaining activity at 1.25 µM,[1]; Well no.=8120,97.1%
same,remaining activity at 3.75 µM,[2]; Well no.=477,96.6%
same,remaining activity at 3.75 µM,[2]; Well no.=8120,94.2%
CN(C)c1cc2c(Nc3ccc4c(cnn4Cc4ccccc4)c3)ncnc2cn1 [GW2974],remaining activity at 1.25 µM,[1]; Well no.=523,103%
same,remaining activity at 3.75 µM,[2]; Well no.=523,100%
